The experiment deals with α-enolase (Homo sapiens, UniProt P06733). Put plainly: microscale thermophoresis with labeled recombinant protein. It counts as binding. In general terms: Microscale thermophoresis detects binding through changes in fluorescence in a small temperature gradient.

Each structure is given as a SMILES string.

Chain of α-enolase (P06733 2-434): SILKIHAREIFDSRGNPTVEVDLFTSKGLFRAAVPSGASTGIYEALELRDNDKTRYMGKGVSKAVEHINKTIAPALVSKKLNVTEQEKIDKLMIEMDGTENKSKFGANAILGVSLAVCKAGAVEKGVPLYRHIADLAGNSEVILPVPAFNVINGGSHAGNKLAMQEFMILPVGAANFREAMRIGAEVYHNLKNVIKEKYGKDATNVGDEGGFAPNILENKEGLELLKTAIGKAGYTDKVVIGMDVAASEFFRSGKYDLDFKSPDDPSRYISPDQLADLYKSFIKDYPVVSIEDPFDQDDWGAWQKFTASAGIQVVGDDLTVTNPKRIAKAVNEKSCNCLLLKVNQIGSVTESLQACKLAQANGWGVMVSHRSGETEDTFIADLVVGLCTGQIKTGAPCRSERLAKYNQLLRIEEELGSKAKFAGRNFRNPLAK

What is called Kd is the concentration at which binding is half-saturated. As to `CCOC(=O)Oc1c(OC)cc(C(=O)O[C@@H]2C[C@@H]3CN4CCc5c([nH]c6cc(OC)ccc56)[C@H]4C[C@@H]3[C@H](C(=O)OC)[C@H]2OC)cc1OC` [syrosingopine], the equilibrium dissociation constant (Kd) was determined as 1250 nM.

The values above are taken from publication PMC5182053 (Science Advances, 2016).
